Data published in publication PMC9576799, “Discovery of small molecule inhibitors that effectively disrupt IQGAP1-Cdc42 interaction in breast cancer cells” (Scientific Reports, 2022).

Columns and labels:
[1] = tested on: MCF7-siIQ8 cells; test: CellTiter-Glo cell viability assay, IQGAP1 knockdown MCF7; assay type: cell-based; details: Homo sapiens
Experimental: Selected hit compounds were tested in CellTiterGlo cell viability assays to determine their cytotoxic effect on IQGAP1 knockout and control MCF7 cells. Prior to the assay, we assessed cell proliferation to keep both cell lines at similar exponential growth rates within 80 h after plating. For this purpose, the cells were plated onto 384-well clear bottom black plates (Perkin Elmer, Ultra) at various cell densities (between 625 and 10,000 cells/50µL/well), spun down for 15 s, and placed into Incucyte SX5 (Essen BioScience) for automated bright-field channel reading every 4 h. […] For the cytotoxicity assays, cells were harvested with 0.05% trypsin, spun down at 125xg for 5 min, re-suspended in fresh DMEM supplemented with 5% (v/v) FBS, and seeded into 1536-well white solid bottom tissue culture-treated plates (Greiner One, #789173-F) at 600 cells/5µL/well for knockout cells and 300 cells/5µL/well for control cells using a Multidrop Combi dispenser (Thermo Fisher Scientific Inc.). […]
Plates and reagents were equilibrated to room temperature and then 5 µL/well of CellTiter Glo (Promega, #G7570) reagent was dispensed with a Multidrop Combi dispenser to the assay plates. After incubation for 10 min at ambient temperature, the luminescence signal was read with a ViewLux instrument (Perkin Elmer) with one second exposure. […]

[2] = tested on: active (GTP-bound) Cdc42 in MDA-MB-231 cells; test: Assay of active Cdc42 (GST-WASP-GBD pulldown); assay type: cell-based, human; details: 50 µM for 2 h, 100 ng/mL EGF 10 min
Experimental: The GST-WASP-GBD (GTPase-binding-domain) has been described previously. Briefly, GST-WASP-GBD was generated by polymerase chain reaction, digested, and ligated into a pGEX-KG vector[52]. Following expression of the GST fusion protein in E. coli, purification was performed by glutathione-Sepharose affinity chromatography. MDA-MB-231 cells were grown in DMEM with 10% FBS to 60% confluence. After 2 h, 100 ng/mL EGF or vehicle was added for 10 min. After washing with 1xPBS, cells were lysed in lysis buffer (20 mM Hepes, pH 7.4, 150 mM NaCl, 1% NP-40, 20 mM NaF, and 20uM GTP, containing halt protease & phosphatase inhibitor cocktail (Thermo Scientific #1,861,281). Lysates were precleared with glutathione-Sepharose for 1 h at 4 °C and equal amounts of protein was incubated with either GST (control) or GST-WASP-GBD for 2 h at 4 °C. Complexes were collected with glutathione-Sepharose and washed 5× with lysis buffer. Bound proteins were resolved by SDS-PAGE and transferred to a polyvinylidene difluoride membrane. The membrane was cut immediately below the 37 kDa molecular weight marker. The top portion of the membrane was discarded and the bottom portion was probed with anti-Cdc42 antibody (BD Transduction Laboratories #610929). Aliquots of whole cell lysate were processed in parallel. […] The intensities of the Cdc42 and tubulin bands were quantified using Image Studio (LI-COR Biosciences).

[3] = tested on: filopodia in MDA-MB-231 cells; test: Filopodia quantification by confocal microscopy (FiloQuant); assay type: cell-based, human; details: 50 μM 2 h, EGF-stimulated
Experimental: MDA-MB231 cells were cultured in 24-well plates containing glass coverslips. When 60% confluent, cells were serum starved for 16 h, preincubated with 50 μM compound NCGC00131308 for 2 h, then incubated with 100 ng/mL epidermal growth factor (EGF) or vehicle for 10 min. Cells were fixed with 4% PFA and stained with Alexa Fluor 488 Phalloidin (Invitrogen™#A12379) and Hoechst 33342 (BD Biosciences #561908) to visualize F-actin and DNA, respectively. Coverslips were mounted with ProLong glass antifade mounting medium (Invitrogen), then imaged with a Zeiss LSM880 confocal microscope using a 63× objective lens. Cells and filopodia were segmented using FIJI/ImageJ[49]. Individual filopodia were segmented using the FiloQuant FIJI plugin[50]. Cells were segmented by Voronoi tessellation using Hoechst 33342 stained nuclei as seed points. The segmented images were quantified using the scikit-image Python package. The following geometric and spatial parameters of the filopodia were quantified: (1) the branch length of each filopodial segment, (2) cumulative area of each segment, (3) eccentricity, defined as the […], and (4) the number of filopodial segments per unit exposed cell membrane. Further data handling and plotting were done using the tidyverse R package. At least 200 cells were analyzed for each condition.

Cc1cccc(NC(=O)c2c(NC(=O)C(F)(F)F)sc3c2CCCCC3)c1 [NCGC00098561]
Emax ([1]; MCF7, 72 h, read-out: cytotoxicity efficacy): ~100% | IC50 ([1]; IQGAP1 knockdown MCF7-siIQ8 cells, 72 h, read-out: cytotoxicity EC50): 2240 nM

CCN1CCN(c2ncc3c(n2)CCN(Cc2cc(Br)cs2)C3)CC1 [NCGC00131308]
effect on EGF-induced active (GTP-) Cdc42 [2]: abrogated the increase in GTP-Cdc42 induced by EGF | filopodia area [3]: significantly decreased | filopodia length [3]: significantly decreased | filopodia shape (eccentricity) [3]: reduced eccentricity | number of filopodia per cell [3]: significantly decreased

CCc1ccccc1Nc1ncnc2c1cnn2-c1ccc(Cl)cc1 [NCGC00138812]
effect on EGF-induced active (GTP-) Cdc42 [2]: did not appreciably reduce activation of Cdc42 by EGF
